Results published in US10821115B2, “Compounds that inhibit Mcl-1 protein” (priority 2017, dated 2020).
pIC50: −log10 of the molar value. Read-outs that look alike come from different tables or passages of the source.

What was measured:
[1] = biological target: recombinant human Mcl-1 (residues 171-327) / Bim interaction (Homo sapiens (Human), UniProt Q07820); experiment: biochemical; type: binding; conditions: read-out: Mcl-1 HTRF IC50
[2] = system: human multiple myeloma cell line, OPM-2; experiment: Cell viability assay (OPM-2 10 FBS), CellTiter-Glo; type: cell-based
Procedure, shortened: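 Steps: plate cells at 3000/well in 10% FBS growth medium, add serially diluted compound, incubate 16 h at 37 °C with 5% CO2, add detection reagent and read luminescence after 25 min. A 4-parameter logistic model gives IC50.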

[3] = TR-FRET, Mcl-1(171-327) / biotin-Bim (51-76)
[4] = read-out: OPM-2 10% FBS IC50 IP, OPM-2 cells, 10% FBS, 16 h, CellTiter-Glo
[5] = Homo sapiens, OPM-2, 16 h, read-out: OPM-2 10% FBS IC50 IP, OPM-2 cells, 10% FBS, 16 h, CellTiter-Glo
[6] = 0.1 nM Mcl-1(171-327), 0.05 nM biotin-Bim (51-76)
[7] = Homo sapiens, OPM-2, 16 h, read-out: OPM-2 10% FBS IC50 IP, OPM-2 cells, 10% FBS, 16 h incubation

Chain of recombinant human Mcl-1 (residues 171-327) / Bim interaction (Q07820 171-327): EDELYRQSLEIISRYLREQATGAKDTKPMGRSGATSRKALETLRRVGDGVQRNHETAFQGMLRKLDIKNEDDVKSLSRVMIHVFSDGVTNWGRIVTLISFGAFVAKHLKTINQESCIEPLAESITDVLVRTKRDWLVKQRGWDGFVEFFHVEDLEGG

| SMILES | pIC50 [1, 3] | pIC50 [2, 5] | pIC50 [1, 6] | pIC50 [2, 7] | further results |
| --- | --- | --- | --- | --- | --- |
| C[C@@H]1[C@@H](C)C/C=C/[C@@](O)(CC(=O)N(C)CCN(C)C)[C@@H]2CC[C@H]2CN2C[C@@]3(CCCc4cc(Cl)ccc43)COc3ccc(cc32)C(=O)NS1(=O)=O [Example 100282, 2-((1S,3′R,6′R,7′S,8′E,11′S,12′R)-6-chloro-7′-hydroxy-11′,12′-dimethyl-13′,13′-dioxido-15′-oxo-3,4-dihydro-2H-spiro[naphthalene-1,22′-[20]oxa[13]thia[1,14]diazatetracyclo [14.7.2.0~3,6~.0~19,24~]pentacosa[8,16,18,24]tetraen]-7′-yl)-N-(2-(dimethylamino)ethyl)-N-methylacetamide] | 9.57 |  |  |  | pIC50 [2, 4]: 5.89 |
| CO[C@@]1(CC2=NCCO2)/C=C/C[C@H](C)[C@@H](C)S(=O)(=O)NC(=O)c2ccc3c(c2)N(C[C@@H]2CC[C@H]21)C[C@@]1(CCCc2cc(Cl)ccc21)CO3 [Example 100500, (1S,3′R,6′R,7′S,8′E,11′S,12′R)-6-chloro-7′-(4,5-dihydro-1,3-oxazol-2-ylmethyl)-7′-methoxy-11′,12′-dimethyl-3,4-dihydro-2H,15′H-spiro[naphthalene-1,22′-[20]oxa[13]thia[1,14]diazatetracyclo [14.7.2.0~3,6~.0~19,24~]pentacosa[8,16,18,24]tetraen]-15′-one 13′,13′-dioxide] | 10.31 | 7.15 |  |  |  |
| C[C@@H]1[C@@H](C)C/C=C/[C@](O)(c2ncccn2)[C@@H]2CC[C@H]2CN2C[C@@]3(CCCc4cc(Cl)ccc43)COc3ccc(cc32)C(=O)NS1(=O)=O (single isomer, unassigned) [Example 100274] | 9.42 | 6.27 |  |  |  |
| C[C@@H]1[C@@H](C)C[C@H]2CCC[C@](O)(C2)[C@@H]2CC[C@H]2CN2C[C@@]3(CCCc4cc(Cl)ccc43)COc3ccc(cc32)C(=O)NS1(=O)=O [Example 100062, (1S,3′R,6′R,7′S,11′R,13′S,14′R)-6-chloro-7′-hydroxy-13′,14′-dimethyl-3,4-dihydro-2H,17′H-spiro[naphthalene-1,24′-[22]oxa[15]thia[1,16]diazapentacyclo [16.7.2.1~7,11~.0~3,6~.0~21,26~]octacosa [18,20,26]trien]-17′-one 15′,15′-dioxide] | 8.37 | 5.00 |  |  |  |
| C[C@@H]1[C@@H](C)C/C=C/[C@@](O)(C#CCN2CCCCC2)[C@@H]2CC[C@H]2CN2C[C@@]3(CCCc4cc(Cl)ccc43)COc3ccc(cc32)C(=O)NS1(=O)=O [Example 100424, (1S,3′R,6′R,7′S,8′E,11′S,12′R)-6-chloro-7′-hydroxy-11′,12′-dimethyl-7′-(3-(1-piperidinyl)-1-propyn-1-yl)-3,4-dihydro-2H,15′H-spiro[naphthalene-1,22′-[20]oxa[13]thia[1,14]diazatetracyclo [14.7.2.0~3,6~.0~19,24~]pentacosa[8,16,18,24]tetraen]-15′-one 13′,13′-dioxide] | 9.60 |  |  |  | pIC50 [2, 4]: 6.33 |
| CO[C@]1(CN2CCN3C(=O)[C@@H](C)OC[C@@H]3C2)/C=C/C[C@H](C)[C@@H](C)S(=O)(=O)NC(=O)c2ccc3c(c2)N(C[C@@H]2CC[C@H]21)C[C@@]1(CCCc2cc(Cl)ccc21)CO3 [Example 144, (1S,3′R,6′R,7′R,8′E,11′S,12′R)-6-chloro-7′-methoxy-11′,12′-dimethyl-7′-(((3R,9aS)-3-methyl-4-oxohexahydropyrazino[2,1-c][1,4]oxazin-8(1H)-yl)methyl)-3,4-dihydro-2H,15′H-spiro[naphthalene-1,22′-[20]oxa[13]thia[1,14]diazatetracyclo [14.7.2.0~3,6~.0~19,24~]pentacosa[8,16,18,24]tetraen]-15′-one 13′,13′-dioxide] |  |  | 9.57 | 6.79 |  |
| CCO[C@@]1(CN2CCC(OC)CC2)/C=C/C[C@H](C)[C@@H](C)S(=O)(=O)NC(=O)c2ccc3c(c2)N(C[C@@H]2CC[C@H]21)C[C@@]1(CCCc2cc(Cl)ccc21)CO3 [Example 113, (1S,3′R,6′R,7′S,8′E,11′S,12′R)-6-chloro-7′-ethoxy-7′-((4-methoxy-1-piperidinyl)methyl)-11′,12′-dimethyl-3,4-dihydro-2H,15′H-spiro[naphthalene-1,22′-[20]oxa[13]thia[1,14]diazatetracyclo [14.7.2.0~3,6~.0~19,24~]pentacosa[8,16,18,24]tetraen]-15′-one 13′,13′-dioxide] |  |  | 8.92 | 5.88 |  |
| C[C@@H]1[C@@H](C)C/C=C/[C@]2(CNC(=O)O2)[C@@H]2CC[C@H]2CN2C[C@@]3(CCCc4cc(Cl)ccc43)COc3ccc(cc32)C(=O)NS1(=O)=O (single isomer, unassigned) [Example 128] |  |  | 9.59 |  | pIC50 ([2]; read-out: OPM-2 10% FBS IC50 IP, OPM-2 cells, 10% FBS, 16 h incubation): 4.71 |
| COC[C@@H]1[C@@H](C)C/C=C/[C@](CN2CCN3CCCC[C@@H]3C2)(OC)[C@@H]2CC[C@H]2CN2C[C@@]3(CCCc4cc(Cl)ccc43)COc3ccc(cc32)C(=O)NS1(=O)=O [Example 169] |  |  | 9.85 | 7.13 |  |
| CC(C)CO[C@]1(CN2CCN3CCCC[C@@H]3C2)/C=C/C[C@H](C)[C@@H](C)S(=O)(=O)NC(=O)c2ccc3c(c2)N(C[C@@H]2CC[C@H]21)C[C@@]1(CCCc2cc(Cl)ccc21)CO3 [Example 354, (1S,3′R,6′R,7′R,8′E,11′S,12′R)-6-chloro-11′,12′-dimethyl-7′-(2-methylpropoxy)-7′-((9aR)-octahydro-2H-pyrido[1,2-a]pyrazin-2-ylmethyl)-3,4-dihydro-2H,15′H-spiro[naphthalene-1,22′-[20]oxa[13]thia[1,14]diazatetracyclo [14.7.2.0~3,6~.0~19,24~]pentacosa[8,16,18,24]tetraen]-15′-one 13′,13′-dioxide] |  |  | 9.67 | 6.35 |  |
| CCO[C@]1(CN2CCN3CCOC[C@@H]3C2)/C=C/C[C@H](C)[C@@H](COC)S(=O)(=O)NC(=O)c2ccc3c(c2)N(C[C@@H]2CC[C@H]21)C[C@@]1(CCCc2cc(Cl)ccc21)CO3 [Example 171, (1S,3′R,6′R,7′R,8′E,11′S,12′S)-6-chloro-7′-ethoxy-7′-((9aS)-hexahydropyrazino[2,1-c][1,4]oxazin-8(1H)-ylmethyl)-12′-(methoxymethyl)-11′-methyl-3,4-dihydro-2H,15′H-spiro[naphthalene-1,22′-[20]oxa[13]thia[1,14]diazatetracyclo [14.7.2.0~3,6~.0~19,24~]pentacosa[8,16,18,24]tetraen]-15′-one 13′,13′-dioxide] |  |  | 10.13 | 6.91 |  |
| C[C@@H]1[C@@H](C)CCC[C@@](O)(C2SCCCS2)[C@@H]2CC[C@H]2CN2C[C@@]3(CCCc4cc(Cl)ccc43)COc3ccc(cc32)C(=O)NS1(=O)=O [Example 100238, (1S,3′R,6′R,7′S,11′S,12′R)-6-chloro-7′-(1,3-dithian-2-yl)-7′-hydroxy-11′,12′-dimethyl-3,4-dihydro-2H,15′H-spiro[naphthalene-1,22′-[20]oxa[13]thia[1,14]diazatetracyclo [14.7.2.0~3,6~.0~19,24~]pentacosa[16,18,24]trien]-15′-one 13′,13′-dioxide] | 9.32 | 6.13 |  |  |  |
| C[C@@H]1[C@@H](C)C[C@@H](N(C)C)C[C@](C)(O)[C@@H]2CC[C@H]2CN2C[C@@]3(CCCc4cc(Cl)ccc43)COc3ccc(cc32)C(=O)NS1(=O)=O [Example 100063, (1S,3′R,6′R,7′S,9′R,11′S,12′R)-6-chloro-9′-(dimethylamino)-7′-hydroxy-7′,11′,12′-trimethyl-3,4-dihydro-2H,15′H-spiro[naphthalene-1,22′-[20]oxa[13]thia[1,14]diazatetracyclo [14.7.2.0~3,6~.0~19,24~]pentacosa[16,18,24]trien]-15′-one 13′,13′-dioxide] | 8.63 | 5.65 |  |  |  |
| C[C@@H]1[C@@H](C)C/C=C/[C@](O)(c2cccnn2)[C@@H]2CC[C@H]2CN2C[C@@]3(CCCc4cc(Cl)ccc43)COc3ccc(cc32)C(=O)NS1(=O)=O [Example 100349, (1S,3′R,6′R,7′R,8′E,11′S,12′R)-6-chloro-7′-hydroxy-11′,12′-dimethyl-7′-(3-pyridazinyl)-3,4-dihydro-2H,15′H-spiro[naphthalene-1,22′-[20]oxa[13]thia[1,14]diazatetracyclo [14.7.2.0~3,6~.0~19,24~]pentacosa[8,16,18,24]tetraen]-15′-one 13′,13′-dioxide] | 8.94 | 7.24 |  |  |  |
| C[C@@H]1[C@@H](C)C/C=C/[C@](O)(CC(=O)N2CCC2)[C@@H]2CC[C@H]2CN2C[C@@]3(CCCc4cc(Cl)ccc43)COc3ccc(cc32)C(=O)NS1(=O)=O [Example 100292, (1S,3′R,6′R,7′R,8′E,11′S,12′R)-7′-(2-(1-azetidinyl)-2-oxoethyl)-6-chloro-7′-hydroxy-11′,12′-dimethyl-3,4-dihydro-2H,15′H-spiro[naphthalene-1,22′-[20]oxa[13]thia[1,14]diazatetracyclo [14.7.2.0~3,6~.0~19,24~]pentacosa[8,16,18,24]tetraen]-15′-one 13′,13′-dioxide] | 9.94 | 6.17 |  |  |  |
| Cc1ccnc(C[C@]2(O)/C=C/C[C@H](C)[C@@H](C)S(=O)(=O)NC(=O)c3ccc4c(c3)N(C[C@@H]3CC[C@H]32)C[C@@]2(CCCc3cc(Cl)ccc32)CO4)c1 [Example 100533, (1S,3′R,6′R,7′S,8′E,11′S,12′R)-6-chloro-7′-hydroxy-11′,12′-dimethyl-7′-((4-methyl-2-pyridinyl)methyl)-3,4-dihydro-2H,15′H-spiro[naphthalene-1,22′-[20]oxa[13]thia[1,14]diazatetracyclo [14.7.2.0~3,6~.0~19,24~]pentacosa[8,16,18,24]tetraen]-15′-one 13′,13′-dioxide] | 8.07 | 5.40 |  |  |  |
